Laboratory results published in ChEMBL document CHEMBL4811230, “In Planta Discovery and Chemical Synthesis of Bracelet Cystine Knot Peptides from Rinorea bengalensis” (J Nat Prod, 2021).
Starred links: 1 amine or outer side, 2 acyl side, 3 side chain; linkers in the order of their positions; H or OH if unused. Positions of bridges follow the written chain, without caps; N, C: chain ends. Non-standard residues stand in square brackets, D forms with d. Residues, ends and D or L forms follow the SMILES beside them. X1 = CN[C@@H](C)[C@H](N[*:1])C(=O)[*:2]

Tests used:
MDA-MB-231 = experiment: Cytotoxicity against human MDA-MB-231 cells assessed as decrease in cell viability measured after 24 hrs by MTT assay; assay type: functional
PC-3 = experiment: Cytotoxicity against human PC-3 cells assessed as decrease in cell viability measured after 24 hrs by MTT assay; assay type: functional
[1] = Cytotoxicity against HUVEC cells assessed as decrease in cell viability measured after 24 hrs by MTT assay; assay type: cell-based; details: human
[2] = Hemolytic activity against human RBC incubated for 1 hr; assay type: ADME, cell-based, Erythrocyte; details: red blood cells (erythrocytes), read-out: CC50

| Structure (SMILES) | CC50 (MDA-MB-231) | CC50 (PC-3) | CC50 at 24 h [1] | HC50 at 1 h [2] |
| --- | --- | --- | --- | --- |
| CC[C@H](C)[C@@H]1NC(=O)[C@@H]2CSSC[C@@H]3NC(=O)[C@H](C(C)C)NC(=O)[C@H](CCCCN)NC(=O)[C@H](CC(=O)NN)NC(=O)[C@H](CCCCN)NC(=O)[C@@H]4CSSC[C@H](NC(=O)[C@H](CO)NC(=O)[C@H](CCC(=O)O)NC(=O)CNC(=O)[C@H](CSSC[C@H](NC(=O)CNC(=O)[C@H]([C@@H](C)CC)NC(=O)[C@H](C(C)C)NC(=O)[C@H](CCC(N)=O)NC(=O)[C@H](CO)NC1=O)C(=O)N[C@@H](CCCCN)C(=O)N4)NC(=O)[C@@H]1CCCN1C(=O)[C@H]([C@@H](C)CC)NC(=O)[C@H](C)NC(=O)[C@H](CCCNC(=N)N)NC(=O)[C@H](Cc1ccc(O)cc1)NC3=O)C(=O)N[C@@H](C(C)C)C(=O)N[C@@H](Cc1ccc(O)cc1)C(=O)N[C@@H]([C@@H](C)CC)C(=O)N1CCC[C@H]1C(=O)N2 | 2200 nM | 1500 nM | 1000 nM |  |
| CC[C@H](C)[C@@H]1NC(=O)[C@H](CC(C)C)NC(=O)[C@H](C)NC(=O)[C@H]([C@H](C)O)NC(=O)[C@H](C(C)C)NC(=O)[C@H]([C@H](C)O)NC(=O)[C@H](CS)NC(=O)[C@@H]2CCCN2C1=O | 1500 nM | 700 nM | 900 nM | 21.9 µM |
| CC[C@H](C)[C@@H]1NC(=O)[C@@H]2CSSC[C@@H]3NC(=O)[C@H](C(C)C)NC(=O)[C@H](CCCCN)NC(=O)[C@H](CC(N)=O)NC(=O)[C@H](CCC(N)=O)NC(=O)[C@@H]4CSSC[C@H](NC(=O)[C@H](CO)NC(=O)[C@H](CCC(=O)O)NC(=O)CNC(=O)[C@H](CSSC[C@H](NC(=O)CNC(=O)[C@H]([C@H](C)NC)NC(=O)[C@H](C(C)C)NC(=O)[C@H](C)NC(=O)[C@H](CO)NC1=O)C(=O)N[C@@H](CCCCN)C(=O)N4)NC(=O)[C@@H]1CCCN1C(=O)[C@H]([C@@H](C)CC)NC(=O)[C@H](C)NC(=O)[C@H](CCCNC(=N)N)NC(=O)[C@H](Cc1ccc(O)cc1)NC3=O)C(=O)N[C@@H](C(C)C)C(=O)N[C@@H](Cc1ccc(O)cc1)C(=O)N[C@@H]([C@@H](C)CC)C(=O)N1CCC[C@H]1C(=O)N2 (cyclo(AIPCGESCVYIPCISAV[X1]GCKCQNKVCYR); disulfide 4-20, 8-22, 13-27) [listing 1 of 2 here] | 2300 nM | 1200 nM |  |  |
| CC[C@H](C)[C@@H]1NC(=O)[C@@H]2CSSC[C@@H]3NC(=O)[C@H](C(C)C)NC(=O)[C@H](CCCCN)NC(=O)[C@H](CC(N)=O)NC(=O)[C@H](CCCCN)NC(=O)[C@@H]4CSSC[C@H](NC(=O)[C@H](CO)NC(=O)[C@H](CCC(=O)O)NC(=O)CNC(=O)[C@H](CSSC[C@H](NC(=O)CNC(=O)[C@H]([C@@H](C)CC)NC(=O)[C@H](C(C)C)NC(=O)[C@H](CO)NC(=O)[C@H](CO)NC1=O)C(=O)N[C@@H](CO)C(=O)N4)NC(=O)[C@@H]1CCCN1C(=O)[C@H]([C@@H](C)CC)NC(=O)[C@H](C)NC(=O)[C@H](CCCNC(=N)N)NC(=O)[C@H](Cc1ccc(O)cc1)NC3=O)C(=O)N[C@@H](C(C)C)C(=O)N[C@@H](Cc1ccc(O)cc1)C(=O)N[C@@H]([C@@H](C)CC)C(=O)N1CCC[C@H]1C(=O)N2 (cyclo(AIPCGESCVYIPCISSVIGCSCKNKVCYR); disulfide 4-20, 8-22, 13-27) | 800 nM | 500 nM |  | 8.8 µM |
| CC[C@H](C)[C@@H]1NC(=O)[C@H](CCCNC(=N)N)NC(=O)CNC(=O)[C@H](CCCCN)NC(=O)[C@@H]2CSSC[C@@H]3NC(=O)[C@H](CO)NC(=O)[C@H](CCC(=O)O)NC(=O)CNC(=O)[C@@H]4CSSC[C@H](NC(=O)CNC(=O)[C@H]([C@@H](C)CC)NC(=O)[C@H](C(C)C)NC(=O)[C@H](CO)NC(=O)[C@H]([C@@H](C)O)NC(=O)[C@H](Cc5ccccc5)NC(=O)[C@H](CSSC[C@H](NC1=O)C(=O)N[C@@H](C(C)C)C(=O)N[C@@H](CCCNC(=N)N)C(=O)N[C@@H](Cc1ccccc1)C(=O)N[C@@H](CCC(N)=O)C(=O)N4)NC(=O)[C@H](Cc1ccc(O)cc1)NC(=O)[C@H]([C@@H](C)O)NC(=O)[C@H]([C@@H](C)O)NC(=O)[C@H]([C@@H](C)CC)NC(=O)[C@H](CCSC)NC(=O)CNC3=O)C(=O)N[C@@H](CO)C(=O)N2 (cyclo(CFTSVIGCSCKGRICVRFQCGESCGMITTY); disulfide 1-15, 8-20, 10-24) [listing 1 of 2 here] | 4100 nM | 1300 nM |  |  |
| CC[C@H](C)[C@@H]1NC(=O)[C@H](C)NC(=O)[C@H](CO)NC(=O)[C@H](CO)NC(=O)[C@H]([C@@H](C)CC)NC(=O)[C@@H]2CSSC[C@@H]3NC(=O)[C@H](C(C)C)NC(=O)[C@H](CCCCN)NC(=O)[C@H](CO)NC(=O)[C@H](CCCCN)NC(=O)[C@@H]4CSSC[C@H](NC(=O)[C@H](CO)NC(=O)[C@H](CCC(=O)O)NC(=O)CNC(=O)[C@H](CSSC[C@H](NC(=O)CNC1=O)C(=O)N[C@@H](CO)C(=O)N4)NC(=O)[C@@H]1CCCN1C(=O)[C@H]([C@@H](C)CC)NC(=O)CNC(=O)[C@H](CC(N)=O)NC(=O)[C@H](CCCNC(=N)N)NC(=O)[C@H](Cc1ccc(O)cc1)NC3=O)C(=O)N[C@@H](C(C)C)C(=O)N[C@@H](Cc1c[nH]c3ccccc13)C(=O)N[C@@H]([C@@H](C)CC)C(=O)N1CCC[C@H]1C(=O)N2 (cyclo(AIGCSCKSKVCYRNGIPCGESCVWIPCISS); disulfide 4-18, 6-22, 11-27) | 1100 nM | 600 nM | 500 nM | 18.5 µM |
| CC[C@H](C)[C@@H]1NC(=O)[C@@H]2CSSC[C@@H]3NC(=O)[C@H](C(C)C)NC(=O)[C@H](CCCCN)NC(=O)[C@H](CC(N)=O)NC(=O)[C@H](CCC(N)=O)NC(=O)[C@@H]4CSSC[C@H](NC(=O)[C@H](CO)NC(=O)[C@H](CCC(=O)O)NC(=O)CNC(=O)[C@H](CSSC[C@H](NC(=O)CNC(=O)[C@H]([C@H](C)NC)NC(=O)[C@H](C(C)C)NC(=O)[C@H](C)NC(=O)[C@H](CO)NC1=O)C(=O)N[C@@H](CCCCN)C(=O)N4)NC(=O)[C@@H]1CCCN1C(=O)[C@H]([C@@H](C)CC)NC(=O)[C@H](C)NC(=O)[C@H](CCCNC(=N)N)NC(=O)[C@H](Cc1ccc(O)cc1)NC3=O)C(=O)N[C@@H](C(C)C)C(=O)N[C@@H](Cc1ccc(O)cc1)C(=O)N[C@@H]([C@@H](C)CC)C(=O)N1CCC[C@H]1C(=O)N2 (cyclo(AIPCGESCVYIPCISAV[X1]GCKCQNKVCYR); disulfide 4-20, 8-22, 13-27) [listing 2 of 2 here] |  |  |  | 20.1 µM |
| CC[C@H](C)[C@@H]1CC(=O)[C@H](C)NC(=O)[C@H](CCCNC(=N)N)NC(=O)[C@H](Cc2ccc(O)cc2)NC(=O)[C@@H]2CSSC[C@@H]3NC(=O)[C@@H]4CCCN4C(=O)[C@H]([C@@H](C)CC)NC(=O)[C@H](Cc4ccc(O)cc4)NC(=O)[C@H](C(C)C)NC(=O)[C@@H]4CSSC[C@H](NC(=O)[C@H](CO)NC(=O)[C@H](CSSC[C@H](NC(=O)[C@@H]5CCCN5C1=O)C(=O)NCC(=O)N[C@@H](CCC(=O)O)C(=O)N[C@@H](CO)C(=O)N4)NC(=O)CNC(=O)[C@H]([C@@H](C)CC)NC(=O)[C@H](C)NC(=O)[C@H](C)NC(=O)[C@H]([C@H](C)O)NC(=O)[C@H](CC(C)C)NC3=O)C(=O)N[C@@H](CCCCN)C(=O)N[C@@H](CC(N)=O)C(=O)N[C@@H](CCCCN)C(=O)N[C@@H](C(C)C)C(=O)N2 | 600 nM | 300 nM | 200 nM |  |
| CC(C)C[C@@H]1NC(=O)CNC(=O)[C@H](CC(N)=O)NC(=O)[C@H](CCCNC(=N)N)NC(=O)[C@H]([C@@H](C)O)NC(=O)[C@@H]2CSSC[C@@H]3NC(=O)[C@H]([C@@H](C)O)NC(=O)CNC(=O)CNC(=O)[C@H](C(C)C)NC(=O)[C@@H]4CSSC[C@H](NC(=O)[C@H]([C@@H](C)O)NC(=O)[C@H](CSSC[C@H](NC(=O)[C@H](C(C)C)NC(=O)[C@@H]5CCCN5C1=O)C(=O)NCC(=O)N[C@@H](CCC(=O)O)C(=O)N[C@@H]([C@@H](C)O)C(=O)N4)NC(=O)CNC(=O)[C@@H]1CCCN1C(=O)[C@H]([C@@H](C)O)NC(=O)[C@H](CC(N)=O)NC3=O)C(=O)N[C@@H](CO)C(=O)N[C@@H](Cc1c[nH]c3ccccc13)C(=O)N1CCC[C@H]1C(=O)N[C@@H](C(C)C)C(=O)N2 | 5100 nM | 3100 nM |  |  |
| CC[C@H](C)[C@@H]1NC(=O)[C@H](CCCNC(=N)N)NC(=O)CNC(=O)[C@H](CCCCN)NC(=O)[C@@H]2CSSC[C@@H]3NC(=O)[C@H](CO)NC(=O)[C@H](CCC(=O)O)NC(=O)CNC(=O)[C@@H]4CSSC[C@H](NC(=O)CNC(=O)[C@H]([C@@H](C)CC)NC(=O)[C@H](C(C)C)NC(=O)[C@H](CO)NC(=O)[C@H]([C@@H](C)O)NC(=O)[C@H](Cc5ccccc5)NC(=O)[C@H](CSSC[C@H](NC1=O)C(=O)N[C@@H](C(C)C)C(=O)N[C@@H](CCCNC(=N)N)C(=O)N[C@@H](Cc1ccccc1)C(=O)N[C@@H](CCC(N)=O)C(=O)N4)NC(=O)[C@H](Cc1ccc(O)cc1)NC(=O)[C@H]([C@@H](C)O)NC(=O)[C@H]([C@@H](C)O)NC(=O)[C@H]([C@@H](C)CC)NC(=O)[C@H](CCSC)NC(=O)CNC3=O)C(=O)N[C@@H](CO)C(=O)N2 (cyclo(CFTSVIGCSCKGRICVRFQCGESCGMITTY); disulfide 1-15, 8-20, 10-24) [listing 2 of 2 here] |  |  | 1200 nM | > 33 µM |
